Legend:
human 14273 [1] = target: T1, human 14273 (Homo sapiens, UniProt Q5NUL3); experiment: Change in intracellular calcium level (FLIPR) in CHO-K1 cells transiently expressing human 14273; format: cell-based; conditions: 30 μM fatty acid (FIG. 1-5); human 14273-expressed CHO-K1 cells; no response in expression vector alone-transfected control cells
T1 construct: expressed in transfected cells; host or cells: CHO-K1, transient transfection (Lipofectamine) with the pAKKO-111-based expression vector
T1 sequence (Q5NUL3 1-361): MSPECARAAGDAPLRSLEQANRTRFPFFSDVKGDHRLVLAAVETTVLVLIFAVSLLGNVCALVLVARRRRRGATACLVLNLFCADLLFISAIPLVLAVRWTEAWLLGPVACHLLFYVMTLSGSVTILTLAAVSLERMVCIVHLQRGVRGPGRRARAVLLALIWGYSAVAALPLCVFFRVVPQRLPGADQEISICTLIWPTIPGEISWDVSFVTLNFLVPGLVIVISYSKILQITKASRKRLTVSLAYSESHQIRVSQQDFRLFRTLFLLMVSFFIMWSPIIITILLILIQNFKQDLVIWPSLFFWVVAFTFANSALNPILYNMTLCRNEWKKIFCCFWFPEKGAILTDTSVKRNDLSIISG
Protocol: (§1) CHO-K1 cells were incubated in Ham F-12 medium (Invitrogen) containing […] calf fetal serum, unless otherwise indicated. On the day before transfection, the cells were plated in 4.5×10^5/10 cm^2 and incubated at 37° C., for 15 hours or longer in a CO2 incubator adjusted to a 5% CO2 concentration. Transfection was carried out by a modification of the procedure described in the protocol attached to the reagent, using Lipofectamine reagent (Invitrogen). Where a 6-well plate was used for the incubator, the procedure was performed as follows. First, 2 tubes each having a 1.5 ml volume were prepared and 100 μl each of Opti-MEM-1 medium (Invitrogen) were dispensed in each tube. Next, after 1 μg of the expression vector was charged in one tube and in another tube 6 μl of the Lipofectamine reagent was charged, they were mixed and settled at room temperature for 20 minutes. A mixture for transfection of The resulting solution was added with 800 μl of Opti-MEM-1 medium and the resulting mixture for transfection was added to CHO-K1 cells previously washed with Opti-MEM-1 medium, followed by incubation in a CO2 incubator for 6 hours. The cells after incubation were rinsed with PBS (Invitrogen), then scraped off using 0.05% trypsin-EDTA solution (Invitrogen) and recovered by centrifugation. The cells collected were counted and diluted to contain 5×10^4 cells per 100 μl of the medium. The dilution was dispensed in a black walled 96-well plate (Costar) at a density of 100 μl/well, followed by incubation overnight in a CO2 incubator. Various samples were added to the CHO-K1 cells, which transiently expressed the receptor by the transfection procedure described above, and a change in intracellular calcium level was measured using FLIPR (Molecular Device). To measure the change in intracellular calcium level on FILPR; the cells were pretreated as follows. First, an assay buffer was prepared to add fluorescent dye Fluo3-AM (DOJIN) to the cells, or to wash the cells immediately before the FLIPR assay. A solution was prepared by adding 20 ml of 1M HEPES (pH 7.4) (DOJIN) to 1000 ml of HBSS (Invitrogen) (hereinafter, HBSS/HEPES solution). After 710 mg of probenecid (Sigma) was dissolved in 5 nil of 1N NaOH, 5 ml of the HBSS/HEPES solution was further added to the solution and the two solutions were mixed with each other. Then, 10 ml of the solution mixture was added to the HBSS/HEPES solution and the resulting solution was used as the assay buffer. Next, 50 μg of Fluo3-AM was added to 21 μl of DMSO (DOJIN) and an equal volume of 20% pluronic acid (Molecular Probes) was added thereto, followed by mixing them. […] Following the pretreatment above, a change in intracellular calcium level was determined with FLIPR, after various test samples were added.

mouse 14273 = target: T2, mouse 14273 (Mus musculus, UniProt Q7TMA4); experiment: Change in intracellular calcium level (FLIPR) in CHO-K1 cells transiently expressing mouse 14273; format: cell-based; conditions: 30 μM fatty acid (FIG. 1-5); mouse 14273-expressed CHO-K1 cells; no response in expression vector alone-transfected control cells
T2 construct: expressed in transfected cells; host or cells: CHO-K1, transient transfection (Lipofectamine) with the pAKKO-111-based expression vector
T2 sequence (Q7TMA4 1-361): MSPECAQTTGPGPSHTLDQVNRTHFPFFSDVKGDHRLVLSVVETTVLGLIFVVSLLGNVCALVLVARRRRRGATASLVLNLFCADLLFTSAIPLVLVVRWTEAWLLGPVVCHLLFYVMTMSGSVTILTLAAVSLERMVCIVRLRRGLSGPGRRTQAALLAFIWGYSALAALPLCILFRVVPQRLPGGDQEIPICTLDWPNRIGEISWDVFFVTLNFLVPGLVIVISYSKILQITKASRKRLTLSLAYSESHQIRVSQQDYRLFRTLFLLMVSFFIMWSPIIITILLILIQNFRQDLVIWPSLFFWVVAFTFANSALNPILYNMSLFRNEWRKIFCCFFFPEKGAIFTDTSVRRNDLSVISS
Protocol: as §1

human 14273 [2] = target: T1, human 14273; experiment: Effects of fatty acids on cAMP production in human 14273-expressed CHO cells; format: cell-based; conditions: in the presence of forskolin (2 μM); fatty acid 30 μM (FIG. 9); not observed in control CHO cells without human 14273
Protocol: After the reaction, the cells were lysed in accordance with the formulation of cAMP Screen (ABI) and the intracellular cAMP level was assayed.

AtT-20 cells = experiment: Suppression of CRF-induced ACTH secretion from AtT-20 cells; conditions: 10 nM CRF, 90 minutes; fatty acid with BSA
3T3-L1 cells = experiment: Lipolysis (glycerol production) in 3T3-L1 adipose differentiation cells stimulated with isoproterenol; format: cell-based, mouse; conditions: 1×10^−9 M isoproterenol plus fatty acid, 2 hours; differentiated 3T3-L1 cells
Protocol: Effects on lipolysis were examined using mouse fibroblast cell line 3T3-L1 cells capable of differentiating into adipocytes. […] The 3T3-L1 cells were plated on a plate and incubated to become confluent. The cells were then treated for 48 hours in the aforesaid medium containing 10 μg/ml of insulin, 0.5 mM 3-isobutyl-1-methylxanthine (IBMX), 2.5 μM dexamethasone to induce differentiation into adipose. Incubation was continued for further 11 days. After the 3T3-L1 cells were differentiated into adipose, a change in the amount of glycerol produced by lipolysis was assayed. After the cells were washed with modified Krebs-Ringer buffer, 1×10^−9 M isoproterenol was added to the cell and simultaneously a fatty acid was added thereto, followed by treatment for 2 hours. The supernatant was then recovered. The glycerol content in the supernatant was determined using Free Glycerol Determination Kit (Sigma).

[3] = test system: mouse 14273-GFP fused protein; experiment: Suppression of expression of mouse 14273-GFP fused protein by siRNA in CHO cells (enzyme immunoassay); format: cell-based; conditions: siRNA 20 nM cotransfected to CHO cells, incubation for a day; absorbance at 450 nm
Protocol: After the culture supernatant was discarded and the cells were washed with HBSS (Invitrogen), the cells were fixed with 0.01% glutaraldehyde (Wako Pure Chemical) for 5 minutes, followed by blocking with 2% BSA-containing PBS (Takara Shuzo). Anti-GFP monoclonal antibody 3E6 (Nippon Gene) diluted to 500-fold was added to the cells. After incubation at room temperature for 2 hours, the cells were washed and HRP-labeled anti-mouse IgG antibody (ICN) diluted to 500-fold was added thereto, followed by incubation at room temperature for 2 hours. After washing, TMB microwell peroxidase substrate (Funakoshi) was added to the cells. After incubation for 30 minutes, sulfuric acid was added to discontinue the color-forming reaction and absorbance was measured at 450 nm.

Molecule	change in intracellular calcium level (human 14273 [1])	change in intracellular calcium level (mouse 14273)	cAMP production suppressing activity (human 14273 [2])	suppression of ACTH secretion induced by CRF (AtT-20 cells)	other results
CCCCCC/C=C\CCCCCCCC(=O)O [Palmitoleic acid]	specifically responded (increased the intracellular calcium level)	specifically responded (increased the intracellular calcium level)			
CCCCC/C=C\C/C=C\C/C=C\C/C=C\CCCC(=O)O [arachidonic acid]	specifically responded (increased the intracellular calcium level)	specifically responded (increased the intracellular calcium level)			
CCCC(=O)O [butyric acid]			did not show any suppressing activity	did not show any significant suppression	
CCCCC/C=C\C/C=C\CCCCCCCC(=O)O [linoleic acid]	specifically responded (increased the intracellular calcium level)	specifically responded (increased the intracellular calcium level)	showed the cAMP production suppressing activity		
CCCCC/C=C\C/C=C\CCCCCCCC(=O)OC [methyl linoleate]					glycerol production increased by isoproterenol stimulation (lipolysis) (3T3-L1 cells): such an activity was not observed
CCCCCCCC/C=C\CCCCCCCC(=O)O [oleic acid]			showed the cAMP production suppressing activity		
CC/C=C\C/C=C\C/C=C\CCCCCCCC(=O)O [α-linoleic acid]				suppression of ACTH secretion induced by CRF was observed more significantly	
CCCCC/C=C\C/C=C\C/C=C\CCCCC(=O)O [γ-linolenic acid]	specifically responded (increased the intracellular calcium level)	specifically responded (increased the intracellular calcium level)	showed the cAMP production suppressing activity	suppression of ACTH secretion induced by CRF was observed more significantly	glycerol production increased by isoproterenol stimulation (lipolysis) (3T3-L1 cells): resulted in lowering the glycerol production
m14i561: mouse 14273-specific siRNA; sense strand SEQ ID NO: 21, antisense strand SEQ ID NO: 22 (sense GGACCAGGAAAUUCCGAUUNN; antisense NNCCUGGUCCUUUAAGGCUAA; chemistry not fully specified; one strand is listed 3' to 5')					suppression of the expression level of pAKKO-14273-GFP [3]: 97%
